# Laboratory results: patent publication US20130157954A1, “METHODS FOR TREATMENT OR PROPHYLAXIS OF KIDNEY OR LIVER DYSFUNCTION” (NPS PHARMACEUTICALS, INC., priority 2010, published 2013)
# Test: Example 2: liver biomarkers (albumin, gamma glutamyl transferase, total bilirubin, ALT, AST, ALP) in short bowel syndrome patients, every four weeks for 24 weeks; also sorted by >10% change from baseline
# Assay type: in vivo, Human
# Conditions: 0.05 mg/kg/d; for Bilirubin: subjects Within 10% of Baseline / Bilirubin: subjects with >10% decrease from Baseline / Bilirubin: subjects with >10% increase from Baseline / ALT: subjects Within 10% of Baseline / ALT: subjects with >10% decrease from Baseline / ALT: subjects with >10% increase from Baseline / AST: subjects Within 10% of Baseline / AST: subjects with >10% decrease from Baseline / AST: subjects with >10% increase from Baseline / Albumin: subjects Within 10% of Baseline / Albumin: subjects with >10% decrease from Baseline / Albumin: subjects with >10% increase from Baseline / Alkaline Phosphatase: subjects Within 10% of Baseline / Alkaline Phosphatase: subjects with >10% decrease from Baseline / Alkaline Phosphatase: subjects with >10% increase from Baseline: m = 40
# Protocol: To further confirm the results of Example 1, a further study was conducted involving more individuals and additional diagnostic biomarkers. Human patients with short bowel syndrome were divided into two groups: a control group (43 total individuals) to receive placebo, and an experimental group (42 total individuals) to receive teduglutide at 0.05 mg/kg/day throughout the study. Patients were treated by subcutaneous injection of placebo or the appropriate dose of teduglutide. Known biomarkers of liver function were monitored every four weeks, for 24 weeks. The liver biomarkers tested included albumin, gamma glutamyl transferase, total bilirubin, ALT and AST and ALP. Before administration of placebo or teduglutide, diagnostic biomarker levels were tested to establish a baseline for each individual.
# To determine the effect of GLP-2 on the levels of the diagnostic biomarkers, the average level of each biomarker was measured for the placebo and teduglutide treated groups for each visit. Furthermore, the average change from baseline was calculated using the established baseline values. For FIGS. 17-28, p-values were calculated using the t-test.
# P values are provided, which were calculated for each distribution of biomarker changes for each week using the chi-squared test.
compound,measurement,setting,value
CC[C@H](C)[C@H](NC(=O)[C@H](Cc1ccccc1)NC(=O)[C@H](CC(=O)O)NC(=O)[C@H](CCCNC(=N)N)NC(=O)[C@H](C)NC(=O)[C@H](C)NC(=O)[C@H](CC(C)C)NC(=O)[C@H](CC(N)=O)NC(=O)[C@H](CC(=O)O)NC(=O)[C@H](CC(C)C)NC(=O)[C@@H](NC(=O)[C@@H](NC(=O)[C@H](CC(N)=O)NC(=O)[C@H](CCSC)NC(=O)[C@H](CCC(=O)O)NC(=O)[C@H](CC(=O)O)NC(=O)[C@H](CO)NC(=O)[C@H](Cc1ccccc1)NC(=O)[C@H](CO)NC(=O)CNC(=O)[C@H](CC(=O)O)NC(=O)CNC(=O)[C@@H](N)Cc1c[nH]cn1)[C@@H](C)O)[C@@H](C)CC)C(=O)N[C@@H](CC(N)=O)C(=O)N[C@@H](Cc1c[nH]c2ccccc12)C(=O)N[C@@H](CC(C)C)C(=O)N[C@H](C(=O)N[C@@H](CCC(N)=O)C(=O)N[C@H](C(=O)N[C@@H](CCCCN)C(=O)N[C@H](C(=O)N[C@H](C(=O)N[C@@H](CC(=O)O)C(=O)O)[C@@H](C)O)[C@@H](C)CC)[C@@H](C)O)[C@@H](C)CC [teduglutide],Bilirubin: subjects Within 10% of Baseline,Week 2,5 (12.5%) n (%)
same,Bilirubin: subjects with >10% decrease from Baseline,Week 2,28 (70.0%) n (%)
same,Bilirubin: subjects with >10% increase from Baseline,Week 2,7 (17.5%) n (%)
same,"ALT Change from Baseline, Max",Week 4,29 U/L
same,"ALT Change from Baseline, Mean",Week 4,−9.2 U/L
same,"ALT Change from Baseline, Median",Week 4,−7 U/L
same,"ALT Change from Baseline, Min",Week 4,−44 U/L
same,"ALT Observed Value, Max",Week 4,104 U/L
same,"ALT Observed Value, Median",Week 4,29 U/L
same,"ALT Observed Value, Min",Week 4,8 U/L
same,"AST Change from Baseline, Max",Week 4,43 U/L
same,"AST Change from Baseline, Mean",Week 4,−3.5 U/L
same,"AST Change from Baseline, Median",Week 4,−5 U/L
same,"AST Change from Baseline, Min",Week 4,−31 U/L
same,"AST Observed Value, Max",Week 4,89 U/L
same,"AST Observed Value, Min",Week 4,13 U/L
same,"Albumin Change from Baseline, Max",Week 4,5 g/L
same,"Albumin Change from Baseline, Mean",Week 4,-0.7 g/L
same,"Albumin Change from Baseline, Median",Week 4,-1 g/L
same,"Albumin Change from Baseline, Min",Week 4,-7 g/L
same,"Albumin Observed Value, Max",Week 4,47 g/L
same,"Albumin Observed Value, Median",Week 4,42 g/L
same,"Albumin Observed Value, Min",Week 4,34 g/L
same,"Alkaline Phosphatase Change from Baseline, Max",Week 4,34 U/L
same,"Alkaline Phosphatase Change from Baseline, Min",Week 4,−89 U/L
same,"Alkaline Phosphatase Observed Value, Max",Week 4,307 U/L
same,"Alkaline Phosphatase Observed Value, Min",Week 4,54 U/L
same,"Bilirubin Change from Baseline, Max",Week 4,9.0 µmol/L
same,"Bilirubin Change from Baseline, Mean",Week 4,-1.10 µmol/L
same,"Bilirubin Change from Baseline, Median",Week 4,-1.5 µmol/L
same,"Bilirubin Change from Baseline, Min",Week 4,-14.2 µmol/L
same,"Bilirubin Observed Value, Max",Week 4,54.0 µmol/L
same,"Bilirubin Observed Value, Min",Week 4,3.4 µmol/L
same,"Gamma Glutamyl Transferase Change from Baseline, Max",Week 4,105 U/L
same,"Gamma Glutamyl Transferase Change from Baseline, Mean",Week 4,1.7 U/L
same,"Gamma Glutamyl Transferase Change from Baseline, Median",Week 4,−0.5 U/L
same,"Gamma Glutamyl Transferase Change from Baseline, Min",Week 4,−88 U/L
same,"Gamma Glutamyl Transferase Observed Value, Max",Week 4,309 U/L
same,"Gamma Glutamyl Transferase Observed Value, Min",Week 4,12 U/L
same,ALT: subjects Within 10% of Baseline,Week 4,8 (20.0%) n (%)
same,ALT: subjects with >10% decrease from Baseline,Week 4,26 (65.0%) n (%)
same,ALT: subjects with >10% increase from Baseline,Week 4,6 (15.0%) n (%)
same,AST: subjects Within 10% of Baseline,Week 4,6 (15.0%) n (%)
same,AST: subjects with >10% decrease from Baseline,Week 4,26 (65.0%) n (%)
same,AST: subjects with >10% increase from Baseline,Week 4,8 (20.0%) n (%)
same,Albumin: subjects Within 10% of Baseline,Week 4,35 (87.5%) n (%)
same,Albumin: subjects with >10% decrease from Baseline,Week 4,3 (7.5%) n (%)
same,Albumin: subjects with >10% increase from Baseline,Week 4,2 (5.0%) n (%)
same,Alkaline Phosphatase: subjects Within 10% of Baseline,Week 4,16 (40.0%) n (%)
same,Alkaline Phosphatase: subjects with >10% decrease from Baseline,Week 4,22 (55.0%) n (%)
same,Alkaline Phosphatase: subjects with >10% increase from Baseline,Week 4,2 (5.0%) n (%)
same,Bilirubin: subjects Within 10% of Baseline,Week 4,7 (17.5%) n (%)
same,Bilirubin: subjects with >10% decrease from Baseline,Week 4,19 (47.5%) n (%)
same,Bilirubin: subjects with >10% increase from Baseline,Week 4,14 (35.0%) n (%)
same,"ALT Change from Baseline, Max",Week 8,20 U/L
same,"ALT Change from Baseline, Median",Week 8,−5.5 U/L
same,"ALT Change from Baseline, Min",Week 8,−65 U/L
same,"ALT Observed Value, Max",Week 8,138 U/L
same,"ALT Observed Value, Median",Week 8,26 U/L
same,"ALT Observed Value, Min",Week 8,9 U/L
same,"AST Change from Baseline, Max",Week 8,17 U/L
same,"AST Change from Baseline, Mean",Week 8,−5.1 U/L
same,"AST Change from Baseline, Median",Week 8,−5 U/L
same,"AST Change from Baseline, Min",Week 8,−46 U/L
same,"AST Observed Value, Max",Week 8,63 U/L
same,"AST Observed Value, Min",Week 8,8 U/L
same,"Albumin Change from Baseline, Max",Week 8,4 g/L
same,"Albumin Change from Baseline, Mean",Week 8,-0.7 g/L
same,"Albumin Change from Baseline, Median",Week 8,-1 g/L
same,"Albumin Change from Baseline, Min",Week 8,-5 g/L
same,"Albumin Observed Value, Max",Week 8,48 g/L
same,"Albumin Observed Value, Median",Week 8,42 g/L
same,"Albumin Observed Value, Min",Week 8,36 g/L
same,"Alkaline Phosphatase Change from Baseline, Max",Week 8,19 U/L
same,"Alkaline Phosphatase Change from Baseline, Min",Week 8,−105 U/L
same,"Alkaline Phosphatase Observed Value, Max",Week 8,341 U/L
same,"Alkaline Phosphatase Observed Value, Median",Week 8,94 U/L
same,"Alkaline Phosphatase Observed Value, Min",Week 8,46 U/L
same,"Bilirubin Change from Baseline, Max",Week 8,6.8 µmol/L
same,"Bilirubin Change from Baseline, Mean",Week 8,-1.60 µmol/L
same,"Bilirubin Change from Baseline, Median",Week 8,-0.95 µmol/L
same,"Bilirubin Change from Baseline, Min",Week 8,-14.9 µmol/L
same,"Bilirubin Observed Value, Max",Week 8,61.8 µmol/L
same,"Bilirubin Observed Value, Min",Week 8,3.4 µmol/L
same,"Gamma Glutamyl Transferase Change from Baseline, Max",Week 8,77 U/L
same,"Gamma Glutamyl Transferase Change from Baseline, Mean",Week 8,−5.7 U/L
same,"Gamma Glutamyl Transferase Change from Baseline, Median",Week 8,−5.5 U/L
same,"Gamma Glutamyl Transferase Change from Baseline, Min",Week 8,−145 U/L
same,"Gamma Glutamyl Transferase Observed Value, Max",Week 8,281 U/L
same,"Gamma Glutamyl Transferase Observed Value, Median",Week 8,46 U/L
same,"Gamma Glutamyl Transferase Observed Value, Min",Week 8,6 U/L
same,ALT: subjects Within 10% of Baseline,Week 8,7 (17.5%) n (%)
same,ALT: subjects with >10% decrease from Baseline,Week 8,26 (65.0%) n (%)
same,ALT: subjects with >10% increase from Baseline,Week 8,7 (17.5%) n (%)
same,AST: subjects Within 10% of Baseline,Week 8,8 (20.0%) n (%)
same,AST: subjects with >10% decrease from Baseline,Week 8,24 (60.0%) n (%)
same,AST: subjects with >10% increase from Baseline,Week 8,8 (20.0%) n (%)
same,Albumin: subjects Within 10% of Baseline,Week 8,38 (95.0%) n (%)
same,Albumin: subjects with >10% decrease from Baseline,Week 8,1 (2.5%) n (%)
same,Albumin: subjects with >10% increase from Baseline,Week 8,1 (2.5%) n (%)
same,Alkaline Phosphatase: subjects Within 10% of Baseline,Week 8,13 (32.5%) n (%)
same,Alkaline Phosphatase: subjects with >10% decrease from Baseline,Week 8,25 (62.5%) n (%)
same,Alkaline Phosphatase: subjects with >10% increase from Baseline,Week 8,2 (5.0%) n (%)
